Source: US4428956A, “4-Hydroxy-5-substituted-3-(2H)-isothiazolone-1,1-dioxide derivatives useful in treating urinary tract calcium oxalate lithiasis” (Merck & Co., Inc., priority 1980, dated 1984)

Target: T1, pig liver glycolate oxidase (Sus scrofa, UniProt I3LVF1)
T1 construct: The enzyme was pig liver glycolate oxidase; from tissue; host or cells: pig liver
T1 sequence (I3LVF1 1-370): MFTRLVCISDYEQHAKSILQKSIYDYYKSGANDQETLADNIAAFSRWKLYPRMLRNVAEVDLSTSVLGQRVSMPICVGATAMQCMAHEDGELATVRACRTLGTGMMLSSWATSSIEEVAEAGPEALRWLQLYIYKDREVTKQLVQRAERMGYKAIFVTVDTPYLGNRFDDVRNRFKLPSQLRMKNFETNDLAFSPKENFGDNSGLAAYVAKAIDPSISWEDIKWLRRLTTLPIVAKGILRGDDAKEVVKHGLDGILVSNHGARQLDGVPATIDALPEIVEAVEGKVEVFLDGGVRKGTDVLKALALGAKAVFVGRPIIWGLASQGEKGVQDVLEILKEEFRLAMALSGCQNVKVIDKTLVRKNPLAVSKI
Experiment: Glycolate Oxidase Enzyme Inhibition
Format: biochemical
Settings: 25° C., 0.10 M phosphate buffer, pH 7.0, 3 mM EDTA; 5×10^-5 M sodium 2,6-dichlorophenol-indophenol, 2×10^-4 M sodium glycolate; initial rates 1 to 3 min., 600 nm
Description: The usefulness of the compounds of the present invention in treating urinary tract, especially renal, calcium oxalate lithiasis, was shown by the ability of those compounds to inhibit the glycolate oxidase enzyme. […] The activity of the enzyme, in turn, was measured by following the rate of reduction of sodium 2,6-dichlorophenol-indophenol by sodium glycolate in the presence of the enzyme. The enzyme was pig liver glycolate oxidase. The reaction was followed spectrophotometrically at 600 nm. The assay was conducted at 25° C. in a 0.10 M phosphate buffer, pH 7.0, containing 3 mM EDTA. Initial substrate concentrations were 5×10^-5 M of sodium 2,6-dichlorophenol-indophenol and 2×10^-4 M of sodium glycolate. Reactions were initiated by the addition of enzyme. Initial rates during the period from 1 to 3 min. after the addition of enzyme were recorded on a Beckman Acta M-VI spectrophotometer. One control was run simultaneously with three test reactions, and all initial rates were adjusted to a common control rate. For further details of this procedure, see Randall et al., J. Med. Chem. 22, 6, 612 (1979).

IC50: 2.1 µM
SMILES: O=C1NS(=O)(=O)C(c2ccccc2)=C1O [4-Hydroxy-5-phenyl-3(2H)-isothiazolone-1,1-dioxide]
